According to EP0601520A1, “Trifluorothymidine derivatives, process for producing the same and anti-cancer agent containing the same” (MITSUI TOATSU CHEMICALS, Inc., priority 1992, dated 1994):
Values belong to the compound of their own block, whether it stands above or below them.

Tests used:
Meth A fibrosarcoma = assay: Anti-tumor activity, subcutaneously transplanted Meth A fibrosarcoma in mice, oral administration; type: in vivo, CDF₁ mice; conditions: tumors weighed on day 14
Text: (§1) The compound obtained in Examples 1, 4, 9 or 11 was uniformly suspended in 0.5% aqueous methylcellulose solution. The compound obtained in Example 14 was uniformly suspended in 0.5% aqueous methylcellulose solution containing 0.1% TWEEN 80.
(§2) For the compounds obtained in Examples 1, 4, 9 and 11, female CDF₁ mice of 7 weeks old were used. For the compound obtained in Example 14, female CDF₁ mice of 6 weeks old were used. Each group consisted of 5 or 6 animals.
As the tumor, Meth A fibrosarcoma was used.
(§3) To the right abdomen of each mouse, 2 x 10⁶ tumor cells were subcutaneously transplanted. On the next day (day 1), the mice were randomly grouped and the suspension was compulsively administered to the mice by using an oral sound for successive 7 days (day 1 - day 7).
On day 14, the tumors were removed and weighed. The tumor growth ratio (%) was calculated according to the following equation: Tumor Growth Ratio (%) = T/C x 100 [formula] wherein T means the average weight of tumor of the treated group and C means the average weight of tumor of the control group. The results about the compounds obtained in Examples 1, 4, 9 and 11 are shown in Table 2, and the results about the compound obtained in Example 14 are shown in Table 3. In Table 2, "HCFU" means 1-hexyl carbamoyl-5-fluorouracil known as "Carmofur".

[1] = Bodyweight change of the tumor-carrying mice in the anti-tumor activity test; type: in vivo, CDF₁ mice
Text: as §1, §2, §3

[2] = dose 100.0 mg/kg, Table 2 experiment, female CDF₁ mice

Bodyweight Change ([1]; dose 14.0 mg/kg oral, day 1 - day 7, female CDF₁ mice 7 weeks old, 0.5% methylcellulose suspension): -0.4 g
Bodyweight Change ([1]; dose 56.1 mg/kg oral, day 1 - day 7, female CDF₁ mice 7 weeks old, 0.5% methylcellulose suspension): -3.2 g
SMILES: C#CCO[C@H]1C[C@H](n2cc(C(F)(F)F)c(=O)[nH]c2=O)O[C@@H]1COC(=S)c1ccc(C)cc1 [Example 1, 3'-O-propargyl-5'-O-(4-methyl-thiobenzoyl)-α,α,α-trifluorothymidine]
Tumor Weight Ratio (T/C:%) (Meth A fibrosarcoma; dose 14.0 mg/kg oral, day 1 - day 7, female CDF₁ mice 7 weeks old): 28.4%
Tumor Weight Ratio (T/C:%) (Meth A fibrosarcoma; dose 56.1 mg/kg oral, day 1 - day 7, female CDF₁ mice 7 weeks old): 7.1%

Bodyweight Change ([1]; dose 14.6 mg/kg oral, day 1 - day 7, female CDF₁ mice 7 weeks old, 0.5% methylcellulose suspension): -0.8 g
Bodyweight Change ([1]; dose 58.5 mg/kg oral, day 1 - day 7, female CDF₁ mice 7 weeks old, 0.5% methylcellulose suspension): -3.8 g
SMILES: C#CCO[C@H]1C[C@H](n2cc(C(F)(F)F)c(=O)[nH]c2=O)O[C@@H]1COC(=S)c1ccc(Cl)cc1 [Example 4, 3'-O-propargyl-5'-O-(4-chlorothiobenzoyl)-α,α,α-trifluorothymidine]
Tumor Weight Ratio (T/C:%) (Meth A fibrosarcoma; dose 14.6 mg/kg oral, day 1 - day 7, female CDF₁ mice 7 weeks old): 23.3%
Tumor Weight Ratio (T/C:%) (Meth A fibrosarcoma; dose 58.5 mg/kg oral, day 1 - day 7, female CDF₁ mice 7 weeks old): 4.8%

SMILES: CCCCCCNC(=O)n1cc(F)c(=O)[nH]c1=O [HCFU, 1-hexyl carbamoyl-5-fluorouracil, reference compound]
Tumor Weight Ratio (T/C:%) (Meth A fibrosarcoma; [2]): 18.0%
Bodyweight Change [1, 2]: -2.0 g

Bodyweight Change ([1]; dose 15.0 mg/kg oral, day 1 - day 7, female CDF₁ mice 7 weeks old, 0.5% methylcellulose suspension): -0.9 g
Bodyweight Change ([1]; dose 60.0 mg/kg oral, day 1 - day 7, female CDF₁ mice 7 weeks old, 0.5% methylcellulose suspension): -4.3 g
SMILES: C#CCO[C@H]1C[C@H](n2cc(C(F)(F)F)c(=O)[nH]c2=O)O[C@@H]1COC(=S)c1ccc(SC)cc1 [Example 9, 3'-O-propargyl-5'-O-(4-thiomethylthiobenzoyl)-α,α,α-trifluorothymidine]
Tumor Weight Ratio (T/C:%) (Meth A fibrosarcoma; dose 15.0 mg/kg oral, day 1 - day 7, female CDF₁ mice 7 weeks old): 22.5%
Tumor Weight Ratio (T/C:%) (Meth A fibrosarcoma; dose 60.0 mg/kg oral, day 1 - day 7, female CDF₁ mice 7 weeks old): 5.1%

Bodyweight Change ([1]; dose 13.8 mg/kg oral, day 1 - day 7, female CDF₁ mice 7 weeks old, 0.5% methylcellulose suspension): -0.7 g
Bodyweight Change ([1]; dose 55.1 mg/kg oral, day 1 - day 7, female CDF₁ mice 7 weeks old, 0.5% methylcellulose suspension): -4.4 g
SMILES: C#CCO[C@H]1C[C@H](n2cc(C(F)(F)F)c(=O)[nH]c2=O)O[C@@H]1COC(=S)c1cccs1 [Example 11, 3'-O-propargyl-5'-O-(2-thiophenecarbothionyl)-α,α,α-trifluorothymidine]
Tumor Weight Ratio (T/C:%) (Meth A fibrosarcoma; dose 13.8 mg/kg oral, day 1 - day 7, female CDF₁ mice 7 weeks old): 27.6%
Tumor Weight Ratio (T/C:%) (Meth A fibrosarcoma; dose 55.1 mg/kg oral, day 1 - day 7, female CDF₁ mice 7 weeks old): 5.8%

Bodyweight Change ([1]; dose 13.6 mg/kg oral, day 1 - day 7, female CDF₁ mice 6 weeks old, 0.5% methylcellulose containing 0.1% TWEEN 80): -0.5 g
Bodyweight Change ([1]; dose 54.4 mg/kg oral, day 1 - day 7, female CDF₁ mice 6 weeks old, 0.5% methylcellulose containing 0.1% TWEEN 80): -3.7 g
SMILES: C#CCO[C@H]1C[C@H](n2cc(C(F)(F)F)c(=O)[nH]c2=O)O[C@@H]1COC(=S)c1ccccc1 [Example 14, 3'-O-propargyl-5'-O-thiobenzoyl-α,α,α-trifluorothymidine]
Tumor Weight Ratio (T/C:%) (Meth A fibrosarcoma; dose 13.6 mg/kg oral, day 1 - day 7, female CDF₁ mice 6 weeks old): 29.4%
Tumor Weight Ratio (T/C:%) (Meth A fibrosarcoma; dose 54.4 mg/kg oral, day 1 - day 7, female CDF₁ mice 6 weeks old): 7.2%
